This series is described as follows: osmotic coefficient (dimensionless); mn = molality of the nth substance listed, in mol/kg. The conditions noted are these: 298.15 K, 101 kPa, Liquid.
Setting [1] is: commercial osmometer Knauer K-7000, m1 = 1.
Where [2] appears, read: commercial osmometer Knauer K-7000, m1 = 3.
The mark [3] stands for this setting: commercial osmometer Gonotec 070, m1 = 0.5.
[4] abbreviates: commercial osmometer Gonotec 070, m1 = 1.

Osmotic coefficient data for 13 molecules are collected here from the NIST ThermoML archive (doi:10.1016/j.jct.2013.08.018).

Where “and” joins values, the source holds several entries; their conditions need not be identical. Identical values can stand only once. Numbers after ± are expanded uncertainties.

On to `N.N.O=S(=O)(O)O` [ammonium sulfate] + O, for which the osmotic coefficient under setting [1] was 0.643 and 0.64 and 0.641; the osmotic coefficient under setting [2] is 0.629 and 0.627 and 0.625.
`[Br-].[Li+]` [lithium bromide] + O: the osmotic coefficient is, setting by setting: under setting [3], 0.978 and 0.97; under setting [4], 1.03 and 1.04.
As for `[Cl-].[Li+]` [lithium chloride] + O, the osmotic coefficient by setting is: under setting [3], 0.928 and 0.955; under setting [4], 0.987 and 0.978.
With `[I-].[Li+]` [lithium iodide] + O, the osmotic coefficient is 1 and 1.01 under setting [3]; 1.07 and 1.01 under setting [4].
With `[Br-].[K+]` [potassium bromide] + O, the osmotic coefficient is 0.907 and 0.905 under setting [3]; 0.919 and 0.917 under setting [4].
On to `[Cl-].[K+]` [potassium chloride] + O, for which the osmotic coefficient under setting [3] was determined as 0.905 ± 0.011; the osmotic coefficient under setting [4] was determined as 0.915 ± 0.01; the osmotic coefficient under setting [1] is 0.895 and 0.897; the osmotic coefficient under setting [2] is 0.938 and 0.935 and 0.936.
As to `[I-].[K+]` [potassium iodide] + O, the osmotic coefficient is, setting by setting: under setting [3], 0.916 and 0.923; under setting [4], 0.934 and 0.927.
With `O=[N+]([O-])[O-].[K+]` [potassium nitrate] + O, the osmotic coefficient is 0.746 and 0.744 and 0.747 under setting [1]; 0.599 and 0.597 and 0.598 under setting [2].
With `[Br-].[Na+]` [sodium bromide] + O, the osmotic coefficient under setting [3] was 0.953 and 0.934; the osmotic coefficient under setting [4] is 0.959 and 0.971.
Consider `[Cl-].[Na+]` [sodium chloride] + O, for which the osmotic coefficient was 0.927 and 0.925 under setting [1]; 1.05 under setting [2].
Consider `[I-].[Na+]` [sodium iodide] + O, for which the osmotic coefficient by setting is: under setting [3], 0.955 and 0.95; under setting [4], 0.985 and 1.
As to `O=[N+]([O-])[O-].[Na+]` [sodium nitrate] + O, the osmotic coefficient under setting [3] is 0.895 and 0.874; the osmotic coefficient under setting [4] is 0.865 and 0.867; the osmotic coefficient under setting [1] was 0.854 and 0.859; the osmotic coefficient under setting [2] was 0.805 and 0.806.
On to `O=S(=O)([O-])[O-].[Na+].[Na+]` [sodium sulfate] + O, for which the osmotic coefficient under setting [3] is 0.717 and 0.69; the osmotic coefficient under setting [4] is 0.658 and 0.642.
